Reference: patent publication US20060014712A1, “Controlled delivery of therapeutic compounds” (CeMines, Inc., priority 2004, published 2006)

Assays:
SK-MEL-28 [1] = experiment: Cell counting after 7 day peptide treatment; format: cell-based, human; details: CPP mimicking peptides, conc 10 µM, start count 10
Protocol: (§1) The ability to block interaction of MITF, SOX10 and STAT3 with active transcriptional complex and inhibit proliferation and stimulate apoptosis of melanoma cells were tested on human melanoma cell lines SK-MEL-28 and WM 266-4, and mouse melanoma cell line B16. Methods. Human melanoma cell lines SK-MEL-28 and WM 2664 and mouse melanoma cell line B16 were obtained from the American Tissue Culture Collection (ATCC). Cells were cultured according to recommendations of ATCC (DMEM, 10% FCS, penicillin+streptomycin) and used in experiments after two passages in the laboratory. Cells were grown in 24 well plates, each treatment in triplicates. Cells were plated 16 hours prior treatments started. Peptides were added to the media, and media was changed every day during 7 day experiment. CPP concentration was 10 μM For cell counting, cells were trypsinized (0.25% Trypsin, 2 mM EDTA) in Ca^+2, Mg^+2 free PBS. Cells were precipitated and resuspended in 100 μl of PBS, and 5 μl were removed for counting Methods. Human melanoma cell lines SK-MEL-28 and WM 266-4 were obtained from the American Tissue Culture Collection (ATCC) and were cultured according to recommendations of ATCC (DMEM, 10% FCS, penicillin+streptomycin). Human keratinocytes were obtained from Clonetics and cultured according to manufacturers protocol. Cells were used in experiments after two passages in the laboratory. Cells were grown in 24 well plates, each treatment in triplicates. Cells were plated 16 hours prior treatments started. Peptides were added to the media, and media was changed every day during 7 day experiment. CPP concentration was 10 μM. For cell counting, cells were trypsinized (0.25% Trypsin, 2 mM EDTA) in Ca, Mg free PBS. Cells were precipitated and resuspended in 100 μl of PBS, and 5 μl were removed for counting.

WM 266-4 [2] = experiment: Cell counting after 7 day peptide treatment; format: cell-based, human; details: CPP mimicking peptides, conc 10 µM, start count 10
Protocol: as §1, with “CPP concentration was 10 μM For cell counting, cells were trypsinized (0.25% Trypsin, 2 mM EDTA) in Ca^+2, Mg^+2 free PBS.” left out, “CPP concentration was 10 μM.” left out

B16 [3] = experiment: Cell counting after 7 day peptide treatment; format: cell-based, mouse; details: CPP mimicking peptides, conc 10 µM, start count 10
Protocol: The ability to block interaction of MITF, SOX10 and STAT3 with active transcriptional complex and inhibit proliferation and stimulate apoptosis of melanoma cells were tested on human melanoma cell lines SK-MEL-28 and WM 266-4, and mouse melanoma cell line B16. Methods. Human melanoma cell lines SK-MEL-28 and WM 2664 and mouse melanoma cell line B16 were obtained from the American Tissue Culture Collection (ATCC). Cells were cultured according to recommendations of ATCC (DMEM, 10% FCS, penicillin+streptomycin) and used in experiments after two passages in the laboratory. Cells were grown in 24 well plates, each treatment in triplicates. Cells were plated 16 hours prior treatments started. Peptides were added to the media, and media was changed every day during 7 day experiment. […] Cells were precipitated and resuspended in 100 μl of PBS, and 5 μl were removed for counting

SK-MEL-28 [4] = experiment: WST-1 test (mitochondrial activity); format: cell-based, human; details: CPP mimicking peptides, conc 10 µM, untreated = 1
WM 266-4 [5] = experiment: WST-1 test (mitochondrial activity); format: cell-based, human; details: CPP mimicking peptides, conc 10 µM, untreated = 1
Protocol: Methods. Human melanoma cell lines SK-MEL-28 and WM 2664 and mouse melanoma cell line B16 were obtained from the American Tissue Culture Collection (ATCC). Cells were cultured according to recommendations of ATCC (DMEM, 10% FCS, penicillin+streptomycin) and used in experiments after two passages in the laboratory. Cells were grown in 24 well plates, each treatment in triplicates. Cells were plated 16 hours prior treatments started. Peptides were added to the media, and media was changed every day during 7 day experiment. […] Methods. Human melanoma cell lines SK-MEL-28 and WM 266-4 were obtained from the American Tissue Culture Collection (ATCC) and were cultured according to recommendations of ATCC (DMEM, 10% FCS, penicillin+streptomycin). Human keratinocytes were obtained from Clonetics and cultured according to manufacturers protocol. Cells were used in experiments after two passages in the laboratory. Cells were grown in 24 well plates, each treatment in triplicates. Cells were plated 16 hours prior treatments started. Peptides were added to the media, and media was changed every day during 7 day experiment. […] WST-1 test was performed to measure mitochondrial activity, which can also be used as a measure of cell number.

B16 [6] = experiment: WST-1 test (mitochondrial activity); format: cell-based, mouse; details: CPP mimicking peptides, conc 10 µM, untreated = 1
Protocol: Methods. Human melanoma cell lines SK-MEL-28 and WM 2664 and mouse melanoma cell line B16 were obtained from the American Tissue Culture Collection (ATCC). Cells were cultured according to recommendations of ATCC (DMEM, 10% FCS, penicillin+streptomycin) and used in experiments after two passages in the laboratory. Cells were grown in 24 well plates, each treatment in triplicates. Cells were plated 16 hours prior treatments started. Peptides were added to the media, and media was changed every day during 7 day experiment. […]

Dct/Trp2 promoter [7] = experiment: Transient CAT assay, Dct/Trp2 proximal promoter-CAT construct in SK-MEL-28; format: cell-based, human; details: CPP concentration 10 μM
Protocol: (§2) SOX10 and MITF interact with the proximal promoter of Dct/Trp2 gene and induces its activity (Ludwig A. et al., FEBS Lett. 556 (1-3):236-244 (2004)). Thus, a Dct/Trp2 proximal promoter reporter construct was used to analyze effect of mimicking peptides on promoter activity using transient CAT assay.
(§3) Methods. Human melanoma cell lines SK-MEL-28 and WM 266-4 were obtained from the American Tissue Culture Collection (ATCC) and were cultured according to recommendations of ATCC (DMEM, 10% FCS, penicillin+streptomycin). Dct/Trp2 proximal promoter-CAT construct (Ludwig et al., supra) was used in all experiments.
(§4) Cells were transfected by using FuGene reagent (Roche Molecular Biochemicals) according to manufacturer's instructions. Freeze-thaw lysates of cells collected 48 h after the transfection were assayed for CAT activity as described (Pothier, F. et al., DNA Cell Biol. 11(1):83-90 (1992)). At least two different DNA preparations were tested for each plasmid. To normalize the transfection efficiencies, cells were cotransfected with pON260 expressing β-galactosidase (Spaete, R. R. and Mocarski, E. S., J. Virol. 54(3):817-24 (1985); Spaete, R. R. and Mocarski, E. S., J. Virol. 56(1):13543 (1985)). All the CAT activities were normalized to total protein and β-galatosidase activity.
(§5) Following transfection, cells were grown in 6 well plates, each treatment in triplicates. Peptides were added to the media and media was changed every day during the 7 day experiment. CPP concentration was 10 μM.

Dct/Trp2 promoter [8] = experiment: Transient CAT assay, Dct/Trp2 proximal promoter-CAT construct in WM 266-4; format: cell-based, human; details: CPP concentration 10 μM
Protocol: as §2, §3, §4, §5

Sequence: RPKKRKVRRRQLMLEPYALDMSRIRVLSESLGLATQSG [Scr-int1, reference compound]
- Cell Count 7 d (SK-MEL-28 [1]): 53
- Cell Count 7 d (WM 266-4 [2]): 41
- Cell Count 7 d (B16 [3]): 83
- WST-1 7 d (SK-MEL-28 [4]): 1
- WST-1 7 d (WM 266-4 [5]): 1
- WST-1 7 d (B16 [6]): 1.1
- Dct/Trp2 promoter activity (CAT assay) (Dct/Trp2 promoter [7]): do not have significant effect
- Dct/Trp2 promoter activity (CAT assay) (Dct/Trp2 promoter [8]): do not have significant effect
